“Also recorded” adds a separate entry of the source.
Experiments:
3T3-L1 adipocytes = experiment: Adipocyte-based measurement of 2-NBDG uptake; assay type: cell-based
From the text: DM is a metabolic ailment that is categorized by glucose intolerance and deviations of lipid and protein metabolism processes. Previously, 2-NBDG was used as a potential agent to evaluate the action of compounds as insulin mimickers. In our experiment, we examined the activity of the pimarane diterpenes 1–7 on 2-NBDG uptake in the 3T3-L1 adipocytes model. […] Among them, compounds 1, 3, 5, 6, and 7 theoretically stimulated glucose uptake by 1.45–1.51-, 1.56–1.68-, 1.55–1.66-, 1.72–1.83-, and 1.67–1.75-fold of inductions, respectively (Figure 2).
Figure 2 The action of pimarane diterpenes (1–7) on 2-NBDG uptake. Compounds concentrations were 5 and 10 µM; Insulin (100 nM); Control (DMSO). The glucose uptake effect was expressed as the mean ± standard deviation (SD) of three replicates. Statistical significance was accessed by Duncan’s multiple range tests (* p < 0.01; ** p < 0.05). […]
Cell Culture and Induction of 3T3-L1 Adipocytes
3T3-L1 cells were purchased from American Type Culture Collection (ATCC, Manassas, VA, USA) and grown in DMEM with 10% FCS. To induce differentiation, 3T3-L1 pre-adipocytes were cultured until confluence was reached (0 day), and the culture medium was replaced with a fresh induction medium containing 5 µg/mL insulin, 0.5 mM 3-isobutyl-1-methylxanthine (IBMX), and 1 µM dexamethasone (DEX) […]
in DMEM with 10% FBS for 2 days. […]
Adipocyte-Based Measurement of 2-NBDG Uptake
3T3-L1 adipocytes grown in black 96-well plates were incubated with each sample for 24 h at 37 °C in a 5% CO2 atmosphere. Subsequently, 250 µM 2-NBDG (dissolved in PBS with 1% BSA) was added to the cells and incubated for a further 30 min. After incubation, cells were washed two times with PBS to remove excess fluorescence in the wells. Then, fluorescence retained by the cells was measured using a PerkinElmer […]

[1] = target: T1, Protein tyrosine phosphatase 1B (human recombinant) (Homo sapiens, UniProt P18031); experiment: PTP1B inhibition assay (p-NPP substrate); assay type: biochemical; settings: read-out: IC50 PTP1B inhibitory activity
T1 construct: purchased Biomol International LP, Plymouth Meeting, PA, USA
T1 sequence (P18031 1-435): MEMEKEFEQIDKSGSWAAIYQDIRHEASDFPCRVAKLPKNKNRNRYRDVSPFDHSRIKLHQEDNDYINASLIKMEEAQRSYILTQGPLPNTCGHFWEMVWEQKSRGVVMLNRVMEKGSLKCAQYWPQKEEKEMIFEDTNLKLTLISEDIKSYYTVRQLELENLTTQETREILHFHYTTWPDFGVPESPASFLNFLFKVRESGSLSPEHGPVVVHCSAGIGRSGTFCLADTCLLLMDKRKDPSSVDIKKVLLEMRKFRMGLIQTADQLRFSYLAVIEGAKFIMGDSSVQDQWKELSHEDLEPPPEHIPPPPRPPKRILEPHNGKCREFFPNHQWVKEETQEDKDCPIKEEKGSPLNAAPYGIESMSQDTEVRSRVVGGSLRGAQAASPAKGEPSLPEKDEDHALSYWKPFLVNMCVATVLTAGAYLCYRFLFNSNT
From the text: PTP1B dephosphorylates IR and IRS in the insulin signaling pathway as a negative regulator. In the leptin signaling pathway, PTP1B presented the same manner of tyrosine Janus kinase 2. Thus, inhibition of PTP1B activity might improve the IR and IRS, leading to the enhancement of glucose uptake in adipocyte cells. […]
(§1) Protein tyrosine phosphatase 1B (human recombinant) was purchased from Biomol International LP, Plymouth Meeting, PA, USA, and the inhibitory activities of the tested samples were evaluated using the method as described in [31]. Briefly, 0.05−0.1 µg of PTP1B (BIOMOL International L.P., Plymouth Meeting, PA, USA) and 4 mM p-NPP in a buffer containing 1 mMdithiothreitol, 0.1 M NaCl, 1 mM EDTA, and 50 mM citrate (pH 6.0), with or without test compounds, were added as 100 µL of a final volume to each of the 96 wells. After the reaction mixture was incubated at 37 °C for 30 min, 10 M NaOH was added to quench the reaction. PTP1B enzyme activity was determined by the amount of produced p-nitrophenol at 405 nm. […]
contain the PTP1B enzyme. […]
(§2) Data are represented as means ± SD of at least three independent experiments performed in triplicated assays and determined by regression analysis. For statistical analysis of the data for single comparison, the significance between means was determined by the Student’s t test. Sigma Plot program version 11.0 was used for analysis of the kinetic data.

[2] = target: T1, Protein tyrosine phosphatase 1B (human recombinant); experiment: Determination of the inhibition mode (Lineweaver–Burk and Dixon plots); assay type: biochemical; settings: p-NPP substrate; for Ki: Dixon plot; for Inhibition Type: Lineweaver–Burk and Dixon plots
From the text: The Sigma plot program was used to analyze both the double reciprocal Lineweaver–Burk plot and the Dixon plot by plotting 1/v as a function of the inhibitor (I). […] Table 1 lists the Ki values for these active compounds.
Victor3 V 1420 Multilabel Plate Counter at an excitation and emission wavelength of 485 nm and 535 nm, […]
as §1
contain the PTP1B enzyme.
Determination of the Inhibition Mode of Active Compounds
The Lineweaver–Burk plot and Dixon plot experiments were carried out in the presence and absence of the inhibitors with various concentrations of p-NPP as the substrate. The inhibition modes of the tested compounds were assessed on the basis of their inhibitory effects on the Km ([…]) and Vmax (maximum reaction velocity) of the enzyme, which were determined by the Lineweaver–Burk plot experiment. The Lineweaver–Burk plot is the double reciprocal plot of the enzyme reaction velocity ( V) versus the substrate ( p-NPP) concentration (1/ V versus 1/( p-NPP)).
as §2

PTP1B = system: PTP1B; set-up: method as in PMID 23604820; settings: very low IC50 values; cited from earlier work

Compound: C=C[C@@]1(C)C[C@@H](OC(=O)c2ccccc2)[C@H]2[C@](O)(C1=O)[C@H](OC(C)=O)C[C@H]1C(C)(C)[C@H](OC(C)=O)[C@H](O)[C@H](OC(=O)c3ccccc3)[C@@]12C [Compound 3, orthosiphol B]
- 2-NBDG uptake, fold of induction (3T3-L1 adipocytes; 5 μM): 1.56 ± 0.09 fold
- 2-NBDG uptake, fold of induction (3T3-L1 adipocytes; range over 5 and 10 µM): 1.56–1.68 fold
- IC50 [1]: 9.84 ± 0.33 µM
- Ki [2]: 75.6 ± 1.7 µM
- Inhibition Type [2]: non-competitive inhibition

Compound: C=C[C@]1(C)C=C2CCC3[C@@](C)(CCC[C@@]3(C)C(=O)O)C2CC1 (stereo partly drawn) [ent-pimara-8(14),15-diene-19-oic acid]
- PTP1B inhibition (in words) (PTP1B): significantly inhibited

Compound: C[C@H]1[C@H](C)CC[C@]2(C(=O)O)CC[C@]3(C)C(=CC[C@@H]4[C@@]5(C)CC[C@H](O)C(C)(C)[C@@H]5CC[C@]43C)[C@H]12 [Ursolic acid, reference compound]
- Inhibition Type [2]: mixed-competitive inhibitor

Compound: insulin
- 2-NBDG uptake, fold of induction (3T3-L1 adipocytes; positive control at 100 nM): 1.55 ± 0.07 fold

Compound: C=C[C@]1(C)C=C2C(=O)C[C@H]3[C@@](C)(CCC[C@@]3(C)C(=O)O)[C@@H]2CC1 [7-oxo-ent-pimara-8(14),15-diene-19-oic acid]
- PTP1B inhibition (in words) (PTP1B): significantly inhibited

Compound: C=CC1(C)CC(OC(=O)c2ccccc2)C2C(O)(C1=O)C(O)CC1C(C)(C)C(OC(C)=O)C(OC(C)=O)C(OC(=O)c3ccccc3)C12COC(C)=O (stereo not drawn) [Compound 2, siphonol D]
- 2-NBDG uptake, fold of induction (3T3-L1 adipocytes; range over 5 and 10 µM): 1.24–1.33 fold
- IC50 [1]: 24.7 ± 1.12 µM

Compound: C=C[C@@]1(C)CC(=O)[C@H]2[C@](O)(C1=O)[C@H](O)C[C@H]1C(C)(C)[C@H](OC(C)=O)[C@H](OC(C)=O)[C@H](OC(=O)c3ccccc3)[C@@]12C [Compound 6, orthosiphol I]
- 2-NBDG uptake, fold of induction (3T3-L1 adipocytes; 5 μM): 1.72 ± 0.11 fold
- 2-NBDG uptake, fold of induction (3T3-L1 adipocytes; range over 5 and 10 µM): 1.72–1.83 fold
- IC50 [1]: 0.33 ± 0.07 µM
- Ki [2]: 1.3 ± 0.6 µM
- Inhibition Type [2]: competitive inhibition

Compound: C=C[C@]1(C)C=C2C(CC1)[C@]1(C)CCC[C@@](C)(C(=O)O)C1C[C@@H]2O (stereo partly drawn) [7β-hydroxy-ent-pimara-8(14),15-diene-19-oic acid]
- PTP1B inhibition (in words) (PTP1B): significantly inhibited

Compound: C=CC1(C)CC(=O)C2C(O)(C1=O)C(O)CC1C(C)(C)C(OC(=O)c3ccccc3)C(OC(C)=O)C(OC(=O)c3ccccc3)C12C (stereo not drawn) [Compound 7, orthosiphol N]
- 2-NBDG uptake, fold of induction (3T3-L1 adipocytes; 5 μM): 1.67 ± 0.08 fold
- 2-NBDG uptake, fold of induction (3T3-L1 adipocytes; range over 5 and 10 µM): 1.67–1.75 fold
- IC50 [1]: 1.6 ± 0.17 µM
- Ki [2]: 5.5 ± 0.1 µM
- Inhibition Type [2]: uncompetitive inhibition

Compound: C=CC1(C)CC(OC(=O)c2ccccc2)C2C(O)(C1=O)C(O)CC1C(C)(C)C(OC(C)=O)C(OC(C)=O)C(OC(=O)c3ccccc3)C12CO (stereo not drawn) [Compound 1, siphonol B]
- 2-NBDG uptake, fold of induction (3T3-L1 adipocytes; range over 5 and 10 µM): 1.45–1.51 fold
- IC50 [1]: 8.18 ± 0.41 µM
- Ki [2]: 52.4 ± 0.9 µM
- Inhibition Type [2]: mixed-competitive inhibitor; also recorded: mixed-competitive inhibition

Compound: C=CC1(C)C=C2CCC3C(C)(CO)CCCC3(C)C2CC1 (stereo not drawn) [ent-pimara-8(14),15-diene-19-ol]
- PTP1B inhibition (in words) (PTP1B): significantly inhibited

Compound: C=C[C@@]1(C)C[C@@H](OC(=O)c2ccccc2)[C@H]2[C@](O)(C1=O)[C@H](O)C[C@H]1C(C)(C)[C@H](OC(C)=O)[C@H](OC(C)=O)[C@H](OC(=O)c3ccccc3)[C@@]12C [Compound 4, orthosiphol F]
- 2-NBDG uptake, fold of induction (3T3-L1 adipocytes; range over 5 and 10 µM): 1.28–1.35 fold
- IC50 [1]: 27.6 ± 2.99 µM

Compound: C=C[C@@]1(C)C[C@@H](O)[C@H]2[C@](O)(C1=O)[C@H](O)C[C@H]1C(C)(C)[C@H](OC(C)=O)[C@H](OC(C)=O)[C@H](OC(=O)c3ccccc3)[C@@]12C [Compound 5, orthosiphol G]
- 2-NBDG uptake, fold of induction (3T3-L1 adipocytes; 5 μM): 1.55 ± 0.02 fold
- 2-NBDG uptake, fold of induction (3T3-L1 adipocytes; range over 5 and 10 µM): 1.55–1.66 fold
- IC50 [1]: 3.82 ± 0.2 µM
- Ki [2]: 23.9 ± 1.2 µM
- Inhibition Type [2]: non-competitive inhibition

Compound: C=C1C[C@@]23CC[C@H]4[C@@](C)(CCC[C@@]4(C)C(=O)O)[C@@H]2CC[C@@H]1C3 [ent-kaur-16-en-19-oic-acid]
- PTP1B inhibition (in words) (PTP1B): significantly inhibited

Compound: C=CC1(C)CCC2C(O)(CCC3C(C)(CO)CCCC32C)C1 (stereo not drawn) [8α-hydroxy-ent-pimara-15-en-19-ol]
- PTP1B inhibition (in words) (PTP1B): significantly inhibited
